Source: patent US20100256173A1, “Method of Treating Cognitive Impairment” (priority 2009, published 2010)

Experiments:
[1] = tested on: extracellular ACh and dopamine in cerebral cortex and hippocampus; assay: extracellular neurotransmitter concentrations in brain; type: in vivo
Text: (§1) Experiments have shown that ST101 potentiates nicotine-stimulated release of acetylcholine (ACh), increases extracellular ACh concentrations in the cerebral cortex, and increases extracellular concentrations of both ACh and dopamine in the hippocampus.

[2] = tested on: rodent models of learning and memory; details: cited from earlier work
[3] = tested on: Senescence Accelerated Mouse P8 (SAMP8); details: cited from earlier work
[4] = known from other studies; cited from earlier work
[5] = tested on: rodent models of learning and memory; assay: rodent models of learning and memory (age-impaired memory, chemical amnesic agents); type: in vivo; details: after both acute (single-dose) and chronic administration
Text: The chemical name for ST101 is spiro(imidazo(1,2-a)pyridin-2(3H)-one-3,2′-indan).
(Yamaguchi Y., et al., J. Pharmacol. Exp. Ther. 317:1079-87 (2006); Ito Y., et al., J. Pharmacol. Exp. Ther. 320: 819-27 (2007)).

[6] = tested on: nicotine-stimulated release of acetylcholine (ACh); assay: nicotine-stimulated release of acetylcholine
Text: as §1

O=C1N=C2C=CC=CN2C12Cc1ccccc1C2 [ST101, spiro(imidazo(1,2-a)pyridin-2(3H)-one-3,2′-indan)]
extracellular ACh concentrations ([1]; cerebral cortex): increases
extracellular concentration of ACh ([1]; hippocampus): increases
extracellular concentration of dopamine ([1]; hippocampus): increases
memory deficits induced by methamphetamine ([2]; chemical amnesic agent methamphetamine): attenuates
memory deficits induced by MK-801 ([2]; glutamate receptor antagonist MK-801): attenuates
age-impaired memory ([2]; in vivo): significantly improves
memory deficits induced by scopolamine ([2]; muscarinic antagonist scopolamine): attenuates
accumulation of Aβ-like deposits ([3]; SAMP8 mouse brain tissue): decreased
learning and memory functions ([3]; SAMP8 mouse): improvement
neuroprotective activity [4]: has neuroprotective activity
pharmacological activity in rodent models of learning and memory relevant to AD [5]: has shown pharmacological activity
nicotine-stimulated release of acetylcholine (ACh) [6]: potentiates
